The structures appear in SMILES notation.

Test [1] deals with 4-4-20 anti-fluorescein scFv mutant 4M1.2, yeast surface displayed Aga2p fusion. The experiment in a line: Competitive dissociation of labeled antigen from yeast surface displayed scFv, followed by flow cytometry. The following applies: 23° C., 5-aminofluorescein as competitor. Type of test: binding. The method, then: (§1) Yeast cells bearing plasmid pCT202 were grown and labeled with anti-c-myc mAb 9E10 and FITC-dextran or biotin-fluorescein, as described. A fraction of the labeled population was analyzed flow cytometrically to determine the initial level of fluorescence. Non-fluorescent competitor (5-aminofluorescein) was added to a final concentration of approximately […] (~1000-fold excess) and the FITC or PE fluorescence of the c-myc positive cell population was followed as a function of time at room temperature (21-23° C.) on a Coulter Epics XL. Data were fitted as an exponential decay. The probability that a polyvalent antigen is bound to the cell as a function of time is given by P=1-(1-e^-kt)^N, where N is the valency, k is the kinetic rate constant for dissociation, and t is time. For long times t, this reduces to P=Ne^-kt. Thus, extrapolation of data for long t to time zero yields P=N, or a fluorescence intensity of Fext =N Fo, where Fext is the extrapolated fluorescence at the time of competitor addition and Fo is the actual initial fluorescence.

Test [2] concerns 4-4-20 anti-fluorescein scFv, wild-type, yeast surface displayed Aga2p fusion. The description is as above. Type of test: binding. The following applies: 5-aminofluorescein as competitor. The method, then:
as §1

Test [3] deals with 4-4-20 anti-fluorescein scFv mutant 4M1.1. The test can be described thus: Soluble fluorescein dissociation kinetics by spectrofluorometry (fluorescence quenching, whole cells displaying scFv). It is filed as binding. The following applies: mutant 4M1.1 vs wild-type 4-4-20 scFv. The method, then:
(§2) Binding to soluble fluorescein (FDS) was assayed by observing fluorescence quenching by whole cells displaying scFv. Cells were suspended at 2×10^7 cells/ml in TBS+0.1% BSA in a quartz cuvette thermostatted at 23° C. and titrated with FDS over a range of 0-7.5 nM. […] Control cells displaying an irrelevant scFv were titrated to obtain a slope for a two-parameter fit of an equilibrium binding model to the data, yielding equilibrium constants and effective scFv concentrations. Following the equilibrium titration, 5-aminofluorescein was added to 1 mM and the change in fluorescence of the sample followed with time to determine koff for FDS.

For test [4], the system named is 4-4-20 anti-fluorescein scFv mutant 4M1.2. Described as above. Type of test: binding. The following applies: mutant 4M1.2 vs wild-type 4-4-20 scFv. As for the experimental part:
as §2

Test [5] concerns the target 4-4-20 anti-fluorescein antibody. The following applies: stated in discussion, no method given; cited from earlier work.

Take `O=C(CCCCCNC(=O)CCCC[C@@H]1SC[C@@H]2NC(=O)N[C@@H]21)NCCCCCNC(=S)Nc1ccc2c(c1)C(=O)OC21c2ccc(O)cc2Oc2cc(O)ccc21` [fluorescein-biotin]: the koff for fluorescein-biotin in test [1] stood at 0.0028 s⁻¹; in test [2] (23° C., wild-type) it was 0.005 s⁻¹. Besides, the “monovalent dissociation rate constant (koff) for fluorescein-biotin” value in test [2] (21° C.) was 0.0039 s⁻¹.

In the case of `O=C1OC2(c3ccc(O)cc3Oc3cc(O)ccc32)c2ccccc21` [fluorescein], the “improvement of soluble fluorescein dissociation kinetics relative to wild-type” value in test [3] and in test [4] was 2.2 fold each time. In addition, in test [5], the Kd is 0.4 nM.

The record behind these values is patent publication US6300065A, “Yeast cell surface display of proteins and uses thereof” (Board of Trustees of the University of Illinois, priority 1998, dated 2001).
